We go through 14 molecules from US10130631B2, “CML therapeutic agents with reduced drug-resistance and side-effect comprising 1,6-disubstituted indole compounds” (KOREA INSTITUTE OF SCIENCE AND TECHNOLOGY, priority 2016, dated 2018).

Type in all cases: cell-based
The test system of one assay is T315I-Bcr-Abl Ba/F3. Briefly: Proliferation inhibitory activity, T315I-Bcr-Abl Ba/F3. The conditions noted are these: for GI50: Mus musculus, BaF3, T315I-Bcr-Abl Ba/F3 cell line; for inhibitory activity against T315I-Bcr-Abl (in words): summary of Table 1. As to the method:
(§1) The GI50 value was calculated by measuring the inhibitory effect on the proliferation of the compounds of the present invention in parental Ba/F3, wt-Bcr-Abl Ba/F3, T315I-Bcr-Abl Ba/F3 and VEGFR2 Ba/F3 cell lines.

The test system of the next assay is Parental Ba/F3. In words: Proliferation inhibitory activity, parental Ba/F3. The conditions noted are these: Mus musculus, BaF3; parental Ba/F3 cell line. As to the method: as §1
For the next assay, the system named is VEGFR2 Ba/F3. Briefly: Proliferation inhibitory activity, VEGFR2 Ba/F3. The conditions noted are these: for GI50: Mus musculus, BaF3, VEGFR2 Ba/F3 cell line; for inhibitory activity against VEGFR2 kinase (in words): summary of Table 1. As to the method:
as §1

The next assay concerns wt-Bcr-Abl Ba/F3. Briefly: Proliferation inhibitory activity, wt-Bcr-Abl Ba/F3. To be noted: for GI50: Mus musculus, BaF3, wt-Bcr-Abl Ba/F3 cell line; for inhibitory activity against wt-Bcr-Abl (in words): summary of Table 1. How it is done: as §1

SMILES strings stand for the structures.

Consider `Cc1cn(-c2cc(C(=O)Nc3ccc(C)c(-c4ccc5ccn(-c6cc(N)ncn6)c5c4)c3)cc(C(F)(F)F)c2)cn1` [Compound No. 1], for which, in the assay with T315I-Bcr-Abl Ba/F3, the GI50 was less than 0.3 µM and the “inhibitory activity against T315I-Bcr-Abl (in words)” value was “strong inhibitory activity”. Also, the GI50 with Parental Ba/F3 was in the range of 0.3 to 3 µM. In the assay with VEGFR2 Ba/F3, the GI50 is greater than 3 µM and the “inhibitory activity against VEGFR2 kinase (in words)” value was “does not exhibit any inhibitory activity”. In the assay on wt-Bcr-Abl Ba/F3, the GI50 is 0.3 to 3 µM and the “inhibitory activity against wt-Bcr-Abl (in words)” value is listed as “have a wt-Bcr-Abl inhibitory activity”.

Turning to `Cc1ccc(NC(=O)c2cc(N3CCC(O)CC3)cc(C(F)(F)F)c2)cc1-c1ccc2ccn(-c3cc(N)ncn3)c2c1` [Compound No. 2], the GI50 was less than 0.3 µM in the assay with T315I-Bcr-Abl Ba/F3, greater than 3 µM with Parental Ba/F3, greater than 3 µM in the assay on VEGFR2 Ba/F3 and greater than 3 µM in the assay with wt-Bcr-Abl Ba/F3.

Take `Cc1ccc(NC(=O)c2cc(N3CCOCC3)cc(C(F)(F)F)c2)cc1-c1ccc2ccn(-c3cc(N)ncn3)c2c1` [Compound No. 3]: the GI50 is less than 0.3 µM in the assay with T315I-Bcr-Abl Ba/F3, greater than 3 µM in the assay on Parental Ba/F3, greater than 3 µM in the assay on VEGFR2 Ba/F3 and greater than 3 µM with wt-Bcr-Abl Ba/F3.

`Cc1ccc(NC(=O)c2ccc(N3CCN(C)CC3)c(C(F)(F)F)c2)cc1-c1ccc2ccn(-c3cc(N)ncn3)c2c1` [Compound No. 5]: in the assay on T315I-Bcr-Abl Ba/F3, the GI50 is less than 0.3 µM and the “inhibitory activity against T315I-Bcr-Abl (in words)” value was “strong inhibitory activity”. The GI50 with Parental Ba/F3 fell in the range of 0.3 to 3 µM. Also, in the assay on VEGFR2 Ba/F3, the GI50 was greater than 3 µM and the “inhibitory activity against VEGFR2 kinase (in words)” value is “does not exhibit any inhibitory activity”. In the assay on wt-Bcr-Abl Ba/F3, the GI50 is 0.3 to 3 µM and the “inhibitory activity against wt-Bcr-Abl (in words)” value was “have a wt-Bcr-Abl inhibitory activity”.

With `Cc1cn(-c2cc(C(=O)Nc3cccc(-c4ccc5ccn(-c6cc(N)ncn6)c5c4)c3)cc(C(F)(F)F)c2)cn1` [Compound No. 7, N-(3-(1-(6-aminopyrimidine-4-yl)-1H-indole-6-yl)phenyl)-3-(4-methyl-1H-imidazole-1-yl)-5-(trifluoromethyl)benzamide], the GI50 is 0.3 to 3 µM with T315I-Bcr-Abl Ba/F3, greater than 3 µM with Parental Ba/F3, greater than 3 µM in the assay with VEGFR2 Ba/F3 and greater than 3 µM with wt-Bcr-Abl Ba/F3.

As to `Nc1cc(-n2ccc3ccc(-c4cccc(NC(=O)c5cc(N6CCOCC6)cc(C(F)(F)F)c5)c4)cc32)ncn1` [Compound No. 8, N-(3-(1-(6-aminopyrimidine-4-yl)-1H-indole-6-yl)phenyl)-3-morpholino-5-(trifluoromethyl)benzamide], the GI50 in the assay with T315I-Bcr-Abl Ba/F3, with Parental Ba/F3, in the assay on VEGFR2 Ba/F3 and with wt-Bcr-Abl Ba/F3 was greater than 3 µM in each case.

`COc1ccccc1NC(=O)Nc1ccc(C)c(-c2ccc3ccn(-c4cc(N)ncn4)c3c2)c1` [Compound No. 9, 1-(3-(1-(6-aminopyrimidine-4-yl)-1H-indole-6-yl)-4-methylphenyl)-3-(2-methoxyphenyl) urea]: the GI50 in the assay on T315I-Bcr-Abl Ba/F3, with Parental Ba/F3, in the assay on VEGFR2 Ba/F3 and in the assay with wt-Bcr-Abl Ba/F3 was greater than 3 µM each time.

For `COc1ccccc1NC(=O)Nc1cccc(-c2ccc3ccn(-c4ncnc5[nH]ccc45)c3c2)c1` [Compound No. 10, 1-(3-(1-(7H-pyrrolo[2,3-d]pyrimidine-4-yl)-1H-indole-6-yl)phenyl)-3-(2-methoxyphenyl)urea], the GI50 with T315I-Bcr-Abl Ba/F3, in the assay on Parental Ba/F3, in the assay on VEGFR2 Ba/F3 and in the assay on wt-Bcr-Abl Ba/F3 was greater than 3 µM each time.

For the molecule `Cc1cn(-c2cc(C(=O)Nc3ccc(C)c(-c4ccc5ccn(-c6ncnc7[nH]ccc67)c5c4)c3)cc(C(F)(F)F)c2)cn1` [Compound No. 11], in the assay with T315I-Bcr-Abl Ba/F3, the GI50 is less than 0.3 µM and the “inhibitory activity against T315I-Bcr-Abl (in words)” value is “strong inhibitory activity”. In the assay on Parental Ba/F3, the GI50 lay in the range of 0.3 to 3 µM. Moreover, in the assay with VEGFR2 Ba/F3, the GI50 is greater than 3 µM and the “inhibitory activity against VEGFR2 kinase (in words)” value was “does not exhibit any inhibitory activity”. In the assay with wt-Bcr-Abl Ba/F3, the 50% growth inhibitory concentration (GI50) is less than 0.3 µM and the “inhibitory activity against wt-Bcr-Abl (in words)” value was “have a wt-Bcr-Abl inhibitory activity”.

With `Cc1ccc(NC(=O)c2cc(N3CCC(O)CC3)cc(C(F)(F)F)c2)cc1-c1ccc2ccn(-c3ncnc4[nH]ccc34)c2c1` [Compound No. 12, N-(3-(1-(7H-pyrrolo[2,3-d]pyrimidine-4-yl)-1H-indole-6-yl)-4-methylphenyl)-3-(4-hydroxypiperidine-1-yl)-5-(trifluoromethyl)benzamide], the GI50 in the assay on T315I-Bcr-Abl Ba/F3 was 0.3 to 3 µM; in the assay on Parental Ba/F3, greater than 3 µM; in the assay with VEGFR2 Ba/F3, greater than 3 µM; with wt-Bcr-Abl Ba/F3 it was greater than 3 µM.

Consider `Cc1ccc(NC(=O)c2cc(N3CCOCC3)cc(C(F)(F)F)c2)cc1-c1ccc2ccn(-c3ncnc4[nH]ccc34)c2c1` [Compound No. 13, N-(3-(1-(7H-pyrrolo[2,3-d]pyrimidine-4-yl)-1H-indole-6-yl)-4-methylphenyl)-3-morpholino-5-(trifluoromethyl)benzamide], for which the GI50 was 0.3 to 3 µM in the assay with T315I-Bcr-Abl Ba/F3, greater than 3 µM in the assay on Parental Ba/F3, greater than 3 µM in the assay with VEGFR2 Ba/F3 and 0.3 to 3 µM in the assay with wt-Bcr-Abl Ba/F3.

Take `Cc1ccc(NC(=O)c2cc(N3CCN(C)CC3)cc(C(F)(F)F)c2)cc1-c1ccc2ccn(-c3ncnc4[nH]ccc34)c2c1` [Compound No. 14, N-(3-(1-(7H-pyrrolo[2,3-d]pyrimidine-4-yl)-1H-indole-6-yl)-4-methylphenyl)-3-(4-methylpiperazine-1-yl)-5-(trifluoromethyl)benzamide]: the GI50 in the assay on T315I-Bcr-Abl Ba/F3 was less than 0.3 µM; in the assay on Parental Ba/F3, 0.3 to 3 µM; in the assay with VEGFR2 Ba/F3, 0.3 to 3 µM; in the assay on wt-Bcr-Abl Ba/F3 it was 0.3 to 3 µM.

For `Cc1ccc(NC(=O)c2ccc(N3CCN(C)CC3)c(C(F)(F)F)c2)cc1-c1ccc2ccn(-c3ncnc4[nH]ccc34)c2c1` [Compound No. 15, N-(3-(1-(7H-pyrrolo[2,3-d]pyrimidine-4-yl)-1H-indole-6-yl)-4-methylphenyl)-4-(4-methylpiperazine-1-yl)-5-(trifluoromethyl)benzamide], the GI50 is less than 0.3 µM in the assay on T315I-Bcr-Abl Ba/F3, 0.3 to 3 µM in the assay with Parental Ba/F3, 0.3 to 3 µM with VEGFR2 Ba/F3 and 0.3 to 3 µM in the assay with wt-Bcr-Abl Ba/F3.

In the case of `Cc1ccc(NC(=O)c2ccc(CN3CCN(C)CC3)c(C(F)(F)F)c2)cc1-c1ccc2ccn(-c3ncnc4[nH]ccc34)c2c1` [Compound No. 16, N-(3-(1-(7H-pyrrolo[2,3-d]pyrimidine-4-yl)-1H-indole-6-yl)-4-methylphenyl)-4-((4-methylpiperazine-1-yl)methyl)-3-(trifluoromethyl)benzamide], the GI50 with T315I-Bcr-Abl Ba/F3 is less than 0.3 µM; with Parental Ba/F3, 0.3 to 3 µM; in the assay with VEGFR2 Ba/F3, 0.3 to 3 µM; in the assay with wt-Bcr-Abl Ba/F3, less than 0.3 µM.
